The subject of assay [1] is Vero E6. The assay is described as follows: cytotoxicity CC50 (uninfected Vero E6, ATP content); higher = less cytotoxic. The settings on record: virus: none (uninfected); 72 h. The procedure:
(§1)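 Read-out is CellTiter-Glo ATP luminescence, normalised to DMSO-only wells (0% rescue) and no-virus wells (100% rescue). The cytotoxicity counter-assay used the same protocol without virus, normalised to DMSO (100% viability) and hyamine (0% viability). Confirmation used 8-point 1:3 titrations in duplicate, fitted to a four-parameter Hill equation.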

The subject of assay [2] is Vero E6. The assay is described as follows: cytotoxicity maximal efficacy (% viability loss, DMSO = 0%, hyamine = 100%); higher = more cytotoxic. The settings on record: virus: none (uninfected); 72 h. As for the experimental part:
as §1

Assay [3] relates to Vero E6. The assay is described as follows: CPE rescue EC50 (SARS-CoV-2 infected Vero E6); higher = less potent antiviral. The note with it: virus: SARS-CoV-2 USA_WA1/2020, MOI 0.002; 72 h. The procedure:
as §1

The structures appear in SMILES notation.

With `CC1(C)CC(=O)c2c(C(F)(F)F)nn(-c3ccc(C(N)=O)c(N[C@H]4CC[C@H](OC(=O)CN)CC4)c3)c2C1`, in the assay with Vero E6 [1], the “cytotoxicity CC50” value was determined as 562 nM.

Turning to `NC(=O)c1ccccc1Nc1ccnc(Nc2cccc(O)c2)n1`, the “cytotoxicity CC50” value in the assay with Vero E6 [1] is 1000 nM.

On to `CCC[C@@H](C=O)NC(=O)[C@H](CC(C)C)NC(=O)[C@H](CC(C)C)NC(=O)OCc1ccccc1`, for which the “cytotoxicity CC50” value with Vero E6 [1] came to 1130 nM. Moreover, the cytotoxicity maximal efficacy in the assay with Vero E6 [2] is 115%.

`CC(=O)c1c(OCCN2CCCCC2)c(OCCC(C)c2ccc(F)cc2)c2oc(C)nc2c1C` (stereo unspecified): the “cytotoxicity CC50” value with Vero E6 [1] amounted to 14100 nM. Also, the cytotoxicity maximal efficacy in the assay with Vero E6 [2] was found to be 33.2%.

As to `O[C@H]1[C@H]2c3cc4c(cc3CN3CCC(=C[C@@H]1O)[C@H]23)OCO4`, the “CPE rescue EC50” value in the assay on Vero E6 [3] was found to be 631 nM.

For `C[C@@H]1O[C@@H](O[C@@H]2[C@@H](O)[C@H](O[C@@H]3[C@@H](O)[C@@H](O)[C@H](O[C@H]4[C@H](OC(=O)[C@]56CCC(C)(C)C[C@H]5C5=CCC7[C@@]8(C)C[C@H](O)[C@H](O[C@@H]9O[C@@H](C)[C@H](O)[C@@H](O)[C@H]9O)[C@@](C)(CO)C8CC[C@@]7(C)[C@]5(C)C[C@H]6O)O[C@H](C)[C@H](O)[C@@H]4O)O[C@H]3C)OC[C@H]2O)[C@H](O)[C@H](O)[C@H]1O` (stereo partly specified), the “CPE rescue EC50” value with Vero E6 [3] is 851 nM.

On to `CC(=NNC(=S)N1CCC1)c1ccccn1`, for which the “cytotoxicity CC50” value with Vero E6 [1] stood at 355 nM.

As to `C/C=C(\C)C(=O)OC1C(C)C2(O)C3C=C(C)C(=O)C3CC(CO)=CC2C2C(C)(C)C12OC(C)=O` (stereo unspecified), the “cytotoxicity CC50” value in the assay on Vero E6 [1] came to 348 nM.

Regarding `CCc1ccc(/C=C2/SC(=S)NC2=O)cc1`, in the assay on Vero E6 [1], the “cytotoxicity CC50” value was determined as 12600 nM. The compound also returned a cytotoxicity maximal efficacy in the assay with Vero E6 [2] of 34.2%.

Take `CC(C)(N)c1ccc(-c2nc3ccccc3nc2-c2ccccc2)cc1`: the “cytotoxicity CC50” value in the assay on Vero E6 [1] stood at 12600 nM. The cytotoxicity maximal efficacy in the assay on Vero E6 [2] came out at 34.2%.

As to `COC(=O)[C@@]12OC[C@]34[C@H]([C@@H](O)[C@@H]1O)[C@@]1(C)CC(=O)C(O)=C(C)[C@@H]1C[C@H]3OC(=O)[C@H](OC(=O)/C=C(\C)C(C)C)[C@@H]24`, the “cytotoxicity CC50” value with Vero E6 [1] turned out to be 142 nM.

On to `COc1ccccc1OCCNCC(O)CCOc1cccc2[nH]c3ccccc3c12` (stereo unspecified), for which the “cytotoxicity CC50” value in the assay on Vero E6 [1] was found to be 10000 nM. Besides, the cytotoxicity maximal efficacy in the assay with Vero E6 [2] stood at 16.2%.

Regarding `O=c1cc(-c2cccc3c2Sc2ccccc2S3)oc(N2CCOCC2)c1`, the “cytotoxicity CC50” value with Vero E6 [1] was 10000 nM. In addition, the cytotoxicity maximal efficacy in the assay on Vero E6 [2] was found to be 42.6%.

With `O=S(=O)(NCC1CC1)c1ccc(Nc2nccc(N3CCCc4cc(O)ccc43)n2)cc1`, the “CPE rescue EC50” value in the assay with Vero E6 [3] is 794 nM.

Regarding `CC(C)C(=O)O[C@H]1[C@@H]2[C@H](C)C(=O)O[C@@H]2C[C@@H](C)[C@@H]2C=CC(=O)[C@]21C`, the “cytotoxicity CC50” value in the assay on Vero E6 [1] is 12600 nM. The compound further had a cytotoxicity maximal efficacy in the assay on Vero E6 [2] of 34.2%.

As to `Cn1cc(-c2ccc(-c3cncc(Cl)c3N3CCC4(CCNC4=O)CC3)cc2)cn1`, in the assay with Vero E6 [1], the “cytotoxicity CC50” value is 282 nM.

On to `COCCN1CCN(Cc2ccc(-c3n[nH]c4c3C(=O)c3c(NC(=O)NN5CCOCC5)cccc3-4)cc2)CC1`, for which the “cytotoxicity CC50” value in the assay with Vero E6 [1] was found to be 316 nM.

`C(=N\Nc1nc(Nc2ccccc2)nc(N2CCOCC2)n1)/c1c[nH]c2ccccc12`: the “CPE rescue EC50” value with Vero E6 [3] was determined as 113 nM.

In the case of `CN(CCCNC(=O)c1ccc2nc3c(c(Cl)c2c1)CCCC3)Cc1ccccc1`, the “cytotoxicity CC50” value in the assay on Vero E6 [1] worked out at 12600 nM. The cytotoxicity maximal efficacy with Vero E6 [2] stood at 39.1%.

As to `COc1ccc2sc(NC(c3ccc(OC(F)F)cc3)c3ccc4cccnc4c3O)nc2c1` (stereo unspecified), in the assay on Vero E6 [1], the “cytotoxicity CC50” value was 708 nM. Further, the “CPE rescue EC50” value in the assay with Vero E6 [3] came out at 891 nM.

As to `CCC(C)C(=O)OC12C(OC(C)=O)C(C)C3(O)C(C=C(CO)CC4(O)C(=O)C(C)=CC43)C1C2(C)C` (stereo unspecified), in the assay on Vero E6 [3], the “CPE rescue EC50” value worked out at 982 nM.

With `OCCCNc1cc(-c2ccnc(Nc3cccc(Cl)c3)n2)ccn1`, in the assay on Vero E6 [1], the “cytotoxicity CC50” value is 112 nM.

Turning to `C/C(=N\Nc1nnc2c(n1)[nH]c1c(C)cccc12)c1ccccn1`, the “cytotoxicity CC50” value in the assay with Vero E6 [1] was determined as 355 nM. In the assay with Vero E6 [2], the cytotoxicity maximal efficacy turned out to be 76.3%.

For `c1ccc2c(-c3cnn4cc(-c5ccc(OCCN6CCOCC6)cc5)cnc34)ccnc2c1`, the “cytotoxicity CC50” value in the assay with Vero E6 [1] turned out to be 5520 nM. The same compound registered a cytotoxicity maximal efficacy with Vero E6 [2] of 29.1%.

Turning to `O=C(c1ccc(-c2ccc(Cl)cc2)o1)N(Cc1ccccn1)c1ccc(N2CCNCC2)cc1`, in the assay with Vero E6 [1], the “cytotoxicity CC50” value stood at 11200 nM. The cytotoxicity maximal efficacy in the assay with Vero E6 [2] amounted to 95.2%.

Take `c1ccc(-c2ccc(CNc3nc(-c4ccccn4)nnc3-c3ccccc3)cc2)cc1`: the “cytotoxicity CC50” value with Vero E6 [1] is 562 nM. The “CPE rescue EC50” value with Vero E6 [3] was determined as 631 nM.

On to `C/C(=N\NC(=O)c1cccc(S(=O)(=O)N2CCOCC2)c1)c1cc(Cl)ccc1O`, for which the “cytotoxicity CC50” value in the assay with Vero E6 [1] was determined as 1000 nM.

Consider `Cn1cc(S(=O)(=O)c2ccc(Cl)cc2)c2cccc(N3CCNCC3)c21`, for which the “cytotoxicity CC50” value in the assay on Vero E6 [1] was found to be 11200 nM. In the assay on Vero E6 [2], the cytotoxicity maximal efficacy was 48.3%.

`OC1CCC(Oc2cccc3cnc(Nc4ccc5nc[nH]c5c4)nc23)CC1` (stereo unspecified): the “cytotoxicity CC50” value in the assay with Vero E6 [1] amounted to 891 nM. Further, the cytotoxicity maximal efficacy in the assay with Vero E6 [2] was found to be 50.5%.

For `CC(C)(C[C@@](O)(Cc1cc2ccncc2[nH]1)C(F)(F)F)c1cc(F)ccc1O`, the “cytotoxicity CC50” value in the assay on Vero E6 [1] was found to be 15800 nM. The same compound showed a cytotoxicity maximal efficacy in the assay on Vero E6 [2] of 22.4%.

For the compound `COC[C@H]1OC(=O)/C(=C/N(C)CCCN(C)C)C2=C(O)C(=O)C3=C([C@H](OC(C)=O)C[C@]4(C)[C@@H](O)CC[C@@H]34)[C@]21C`, the “cytotoxicity CC50” value in the assay with Vero E6 [1] worked out at 8910 nM. Besides, in the assay on Vero E6 [2], the cytotoxicity maximal efficacy is 62.1%.

Take `CN(CCc1ccc(Nc2ncc(-c3cccnc3)s2)cc1)Cc1ccccc1`: the “cytotoxicity CC50” value in the assay on Vero E6 [1] was 12600 nM. In the assay with Vero E6 [2], this compound displayed a cytotoxicity maximal efficacy of 44.4%.

As for `Cn1c(Nc2ccc(C(F)(F)F)cc2)nc2cc(Oc3ccnc(-c4ncc(C(F)(F)F)[nH]4)c3)ccc21`, the “cytotoxicity CC50” value in the assay with Vero E6 [1] turned out to be 316 nM. The “CPE rescue EC50” value in the assay on Vero E6 [3] was 794 nM.

As to `COc1c(C)cnc(Cn2cnc3c(Cl)nc(N)nc32)c1C`, the “cytotoxicity CC50” value in the assay on Vero E6 [1] is 355 nM.

`CCOc1ccc(-c2nc(-c3cccc4c3CCC4NCCO)no2)cc1OCC` (stereo unspecified): the “cytotoxicity CC50” value with Vero E6 [1] was determined as 631 nM.

`N#Cc1ccc(O[C@@H]2c3ccccc3C[C@H]2N2CCC[C@@H](N)C2)c(Cl)c1`: the “cytotoxicity CC50” value in the assay on Vero E6 [1] was found to be 12600 nM. This compound gave a cytotoxicity maximal efficacy in the assay on Vero E6 [2] of 52.9%.

As to `COc1ccc2c(Oc3ccc(NC(=O)c4c(C)n(CC(C)(C)O)n(-c5ccccc5)c4=O)cc3F)ccnc2c1`, in the assay on Vero E6 [1], the “cytotoxicity CC50” value stood at 14100 nM. In the assay with Vero E6 [2], this compound showed a cytotoxicity maximal efficacy of 70.3%.

As for `CC(C)C[C@H](NC(=O)[C@H](Cc1ccccc1)NC(=O)OCc1ccccc1)C(=O)C=O`, the “cytotoxicity CC50” value in the assay on Vero E6 [1] came out at 11200 nM. In the assay with Vero E6 [2], this compound came in with a cytotoxicity maximal efficacy of 33.4%.

On to `CO/C1=C\C(C)=C\[C@@H](C)[C@@H](O)[C@@H](C)C/C(C)=C/C=C\[C@H](OC)C([C@@H](C)[C@@H](O)[C@H](C)[C@@]2(O)C[C@@H](O)[C@H](C)C(C(C)C)O2)OC1=O` (stereo partly specified), for which the “cytotoxicity CC50” value in the assay with Vero E6 [1] amounted to 101 nM.

Consider `COc1ccc(-c2csc(NC(=O)[C@H]3CCCCN3S(=O)(=O)c3ccc(C)cc3)n2)cc1`, for which the “cytotoxicity CC50” value in the assay with Vero E6 [1] turned out to be 2000 nM.

Consider `C[C@@H]1O[C@@H](O[C@H]2[C@H](OC(=O)[C@]34CCC(C)(C)C[C@H]3C3=CCC5[C@@]6(C)CC[C@H](O[C@@H]7O[C@H](CO[C@@H]8OC[C@H](O)[C@H](O)[C@H]8O)[C@@H](O)[C@H](O)[C@H]7O)C(C)(C)C6CC[C@@]5(C)[C@]3(C)C[C@H]4O)OC[C@@H](O)[C@@H]2O)[C@H](O)[C@H](O)[C@H]1O[C@@H]1OC[C@H](O)[C@H](O[C@@H]2OC[C@@H](O)[C@H](O)[C@H]2O)[C@H]1O` (stereo partly specified), for which the “CPE rescue EC50” value in the assay on Vero E6 [3] stood at 602 nM.

With `CN(C)c1cc2c(cc1Sc1nc3c(N)nccc3n1CCNCC(C)(C)C)OCO2`, in the assay with Vero E6 [1], the “cytotoxicity CC50” value was 708 nM.

As for `O=C(O)c1ccc(CCCc2ccc(OCCc3ccc(F)cc3)cc2)o1`, the “CPE rescue EC50” value with Vero E6 [3] came out at 141 nM.

`CC(C)[C@H]1C(=O)N[C@H](CO)Cc2c[nH]c3cccc(c23)N1C`: in the assay with Vero E6 [1], the “cytotoxicity CC50” value came out at 1240 nM. Besides, in the assay on Vero E6 [2], the cytotoxicity maximal efficacy turned out to be 20.4%.

In the case of `C[C@@H]1O[C@@H](O[C@H]2[C@H](OC(=O)[C@]34CCC(C)(C)C[C@H]3C3=CCC5[C@@]6(C)CC[C@H](O[C@@H]7O[C@H](CO[C@@H]8OC[C@H](O)[C@H](O)[C@H]8O)[C@@H](O)[C@H](O)[C@H]7O)C(C)(C)C6CC[C@@]5(C)[C@]3(C)C[C@H]4O)OC[C@@H](O)[C@@H]2O)[C@H](O)[C@H](O[C@@H]2OC[C@](O)(CO)[C@H]2O)[C@H]1O[C@@H]1OC[C@H](O)[C@H](O[C@@H]2OC[C@@H](O)[C@H](O)[C@H]2O)[C@H]1O` (stereo partly specified), in the assay with Vero E6 [3], the “CPE rescue EC50” value is 955 nM.

Consider `CC(=O)OC[C@]12C[C@H](OC(=O)CC(C)C)C(C)=C[C@H]1O[C@@H]1[C@H](O)[C@@H](O)[C@@]2(C)[C@]12CO2`, for which the “cytotoxicity CC50” value with Vero E6 [1] stood at 127 nM.

With `O=S(=O)(Cc1ccccc1)Nc1ccc(-c2ccc3c(cnn3-c3ccc(F)cc3)c2)c(C(F)(F)F)c1`, in the assay on Vero E6 [1], the “cytotoxicity CC50” value is 14100 nM. The same compound registered a cytotoxicity maximal efficacy with Vero E6 [2] of 24.3%.

For the origin of these results see the supplement of paper PMC7444282.
